Results published in PMC3835742, “Lack of Plasma Kallikrein-Kinin System Cascade in Teleosts” (PLoS ONE, 2013).
Entries after “also recorded” stand apart in the source; their conditions may differ.

Key:
[1] = system: polyclonal antiserum for [Arg^0]-BK; experiment: Radioimmunoassay (RIA) for [Arg^0, Trp^5, Leu^8]-bradykinin; format: binding, rabbit; conditions: for crossreactivity in the RIA: relative to [Arg^0]-BK standard, peptides serially diluted in RIA buffer, antiserum 1:10,000, 4 °C, 24 h
Protocol: [Arg^0, Trp^5, Leu^8]-bradykinin ([Arg^0]-BK: RRPPGWSPLR) was synthesized by Phoenix Pharmaceuticals Inc. (Burlingame, CA, USA). [Arg^0]-BK was N-terminally conjugated to thyroglobulin by the glutaraldehyde method. Briefly, 5 mg thyroglobulin was mixed with 1 mg [Arg^0]-BK in 4 mL PBS (pH 7.0) and glutaraldehyde was added to a final concentration of 0.05 %. The mixture was incubated at 25 °C for 1 h with gentle agitation and reaction was stopped by addition of 0.1 mL ethanolamine. The mixture was dialyzed against 1 L PBS overnight at 4 °C and protein concentration was determined. For each injection, 0.2 mg conjugated protein was used and three rabbits were first immunized with the conjugated protein in Freund’s complete adjuvant followed by two booster immunogen injections in Freund’s incomplete adjuvant. The interval between injections was 4 weeks and the rabbits were sacrificed for final bleeds 3 weeks after the third immunization.
Synthetic [Tyr^-1, Arg^0, Trp^5, Leu^8]-bradykinin (YRRPPGWSPLR) was radiolabeled by ^125I using the lactoperoxidase method and the iodinated peptide was purified by an HPLC system. The ^125I-BK was diluted in RIA buffer containing 0.1% RIA-grade bovine serum albumin to produce ~10,000 cpm per assay tube. The titers of the antiserum were determined by serial dilution and maximum binding was adjusted at 20 % of the total binding. […] Unbound fractions were removed by aspiration and specific binding in the pellet was measured using a gamma counter (Perkin Elmer, MA, USA). […]
(§1) To test the degradation rate of [Arg^0]-BK in plasma in vitro, 3 blood samples with inhibitor cocktail were prepared. […] The immunoreactive (ir)-[Arg^0]-BK was measured using the newly established RIA. […] The concentration of [Arg^0]-BK in the HPLC fractions were measured to determine the percentage recovery. Synthetic [Trp^5, Leu^8]-BK (BK) and [Arg^0, Trp^5, des-Leu^8, des-Arg^9]-bradykinin were serially diluted in RIA buffer and measured by RIA to determine the cross-reactivities among these closely related peptides.

[2] = Degradation rate of [Arg^0]-BK in plasma in vitro; format: in vitro ADME, Japanese eel; conditions: plasma with inhibitor cocktail (1,10-phenanthroline, potassium EDTA, aprotinin), spiked 3,000 fmol/mL, 25 °C, 0, 10 and 30 min, Sep-Pak extraction, RIA read-out, n = 3, Student t-test p > 0.05
Protocol: (§2) Juvenile, sexually immature Japanese eel (Anguilla japonica; 160 - 220 g), tilapia (Oreochromis niloticus; 50 - 100g), rainbow trout (Oncorhynchus mykiss; 100 - 200 g), and adult medaka of both sex (Oryzias latipes; 1.5 - 2.2 g) were kept in a freshwater recirculating aquarium system in the Atmosphere and Ocean Research Institute, the University of Tokyo. The water was maintained at 12 °C for trout, 18 °C for eel, 25 °C for tilapia, and 27 °C for medaka, and all animals were exposed to a 14/10 h light/dark cycle throughout the experiment. All animal experimental procedures were approved by the Animal Experiment Committee of the University of Tokyo. Fish were anesthetized by 0.1% ethyl 3-aminobenzoate methanesulfonate (Sigma, St. Louis, MO) neutralized with sodium bicarbonate. […]
as §1

[3] = Spiking of pooled plasma, Sep-Pak/HPLC extraction and RIA (recovery and integrity); design: species or system Japanese eel; conditions: pooled eel plasma with inhibitor cocktail spiked to 300, 1000, 3000 fmol/mL, ir-BK profile by RIA
Protocol: as §2, with “Tokyo.” for “Tokyo. Fish were anesthetized by 0.1% ethyl 3-aminobenzoate methanesulfonate (Sigma, St. Louis, MO) neutralized with sodium bicarbonate.”
The plasma samples were purified by Sep-Pak C18 cartridge, with equilibration buffer (100 mM Tris-HCl, 0.5 M NaCl, pH 7.4) for binding and absolute methanol for elution. The partially purified plasma was further resolved by a reverse-phase HPLC system (Tosoh PU-980, Tokyo) attached to a UV-absorbance detector (Tosoh, UV-970, Tokyo) and utilizing an analytical column (ODS 100S column, 4.6 mm I.D. x 25 cm, C-18, 5 μm particle size, Tosoh, Tokyo). […]
To test the degradation rate of [Arg^0]-BK in plasma in vitro, 3 blood samples with inhibitor cocktail were prepared. […] The immunoreactive (ir)-[Arg^0]-BK was measured using the newly established RIA. […]

eel = conditions: compared with BK, ref [14]; cited from earlier work

| Substance | EC50 ([1]; displacement of 125I-[Tyr^-1, Arg^0, Trp^5, Leu^8]-bradykinin tracer, antiserum 1:10,000, 4 °C for 24 h, gamma counter, measurements in duplicate) [nM] | ir-[Arg^0]-BK content after incubation in plasma [2] | integrity of spiked [Arg^0]-BK in plasma (conversion to BK) [3] | potency in eliciting cardiovascular and antidipsogenic effects (eel) | crossreactivity in the RIA [1] |
| --- | --- | --- | --- | --- | --- |
| RRPPGWSPLR [[Arg^0]-BK, [Arg^0, Trp^5, Leu^8]-bradykinin, synthetic teleost decapeptide kinin, […], from Phoenix Pharmaceuticals] | 0.55 | did not alter the peptide contents; also recorded: not statistically different among various time points | remained as a single ir-peak; also recorded: remained intact | more potent than BK | – |
| [Arg^0, Trp^5, des-Leu^8, des-Arg^9]-bradykinin [[Arg^0, Trp^5, des-Leu^8, des-Arg^9]-BK] | – | – | – | – | negligible crossreactivity |
| [Trp^5, Leu^8]-BK | – | – | – | – | 71.3% |
